molecular target: Human recombinant Histone Deacetylase 8 (HDAC8) (Homo sapiens (Human), UniProt Q9BY41); assay: HDAC8 Enzymatic Assay (HDAC-Glo I/II luminescence); format: biochemical; conditions: class symbols, Table 14; read-out: HDAC8 IC50
In short: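 Human recombinant HDAC8 (1.5 nM final) preincubated with compound for 30 min, then reacted with 50 μM Boc-GAK(Ac)-aminoluciferin plus trypsin-containing developer for 15 min at room temperature, pH 8.0, 0.5% DMSO. Luminescence read-out; IC50 from percent control activity versus log concentration.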

Chain of Human recombinant Histone Deacetylase 8 (HDAC8) (Q9BY41 whole entry): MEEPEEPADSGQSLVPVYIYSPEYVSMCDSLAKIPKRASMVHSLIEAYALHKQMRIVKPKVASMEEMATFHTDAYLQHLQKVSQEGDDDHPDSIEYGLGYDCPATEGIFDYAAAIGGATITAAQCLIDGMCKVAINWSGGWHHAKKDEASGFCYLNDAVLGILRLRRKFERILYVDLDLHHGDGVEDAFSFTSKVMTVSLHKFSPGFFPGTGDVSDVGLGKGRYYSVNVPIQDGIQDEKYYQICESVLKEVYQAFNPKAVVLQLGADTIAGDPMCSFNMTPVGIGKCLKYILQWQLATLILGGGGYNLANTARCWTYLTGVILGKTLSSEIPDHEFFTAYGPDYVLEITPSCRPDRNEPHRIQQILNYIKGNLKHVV

| Compound | IC50 |
| --- | --- |
| COc1ccc(-c2cc3cnn(C(Cc4ccccc4)C(=O)NO)c3cn2)cn1 (stereo not drawn) [Compound I-0096, N-hydroxy-2-(5-(6-methoxypyridin-3-yl)-1H-pyrazolo[3,4-c]pyridin-1-yl)-3-phenylpropanamide] | > 500 nM |
| O=C(NO)C(Cc1ccccc1)n1ncc2cc(-c3ccncc3)ncc21 (stereo not drawn) [Compound I-0097, N-hydroxy-3-phenyl-2-(5-(pyridin-4-yl)-1H-pyrazolo[3,4-c]pyridin-1-yl)propanamide] | > 500 nM |
| O=C(NO)C(Cc1ccccc1)n1ncc2cc(C3CC3)ncc21 (stereo not drawn) [Compound I-0098, 2-(5-cyclopropyl-1H-pyrazolo[3,4-c]pyridin-1-yl)-N-hydroxy-3-phenylpropanamide] | > 500 nM |
| O=C(NO)C(Cc1ccccc1)n1ncc2cc(Br)ncc21 (stereo not drawn) [Compound I-0099, 2-(5-bromo-1H-pyrazolo[3,4-c]pyridin-1-yl)-N-hydroxy-3-phenylpropanamide] | > 500 nM |
| O=C(NO)C(Cc1ccccc1)n1cc2cc(Br)ncc2n1 (stereo not drawn) [Compound I-0100, 2-(5-bromo-2H-pyrazolo[3,4-c]pyridine-2-yl)-N-hydroxy-3-phenylpropanamide] | > 500 nM |
| CN1CC=C(c2cccc3cn(C(Cc4ccccc4)C(=O)NO)nc23)CC1 (stereo not drawn) [Compound I-0101, N-hydroxy-2-(7-(1-methyl-1,2,3,6-tetrahydropyridin-4-yl)-2H-indazol-2-yl)-3-phenylpropanamide] | > 500 nM |
| O=C(NO)C(Cc1ccccc1)n1ncc2ccccc21 (stereo not drawn) [Compound I-0102, N-hydroxy-2-(1H-indazol-1-yl)-3-phenylpropanamide] | > 500 nM |
| Cc1nn(C)c(C)c1-c1cccc2cn(C(Cc3ccccc3)C(=O)NO)nc12 (stereo not drawn) [Compound I-0111, N-hydroxy-3-phenyl-2-(7-(1,3,5-trimethyl-1H-pyrazol-4-yl)-2H-indazol-2-yl)propanamide] | > 500 nM |
| O=C(NO)C(Cc1ccccc1)c1cnc2cc(-c3ccncc3)ccn12 (stereo not drawn) [Compound I-0113, N-hydroxy-3-phenyl-2-(7-(pyridin-4-yl)imidazo[1,2-a]pyridin-3-yl)propanamide] | > 500 nM |
| O=C(NO)C(Cc1ccccc1)n1ncc2cc(-c3ccccc3)cnc21 (stereo not drawn) [Compound I-0116, N-hydroxy-3-phenyl-2-(5-phenyl-1H-pyrazolo[3,4-b]pyridin-1-yl)propanamide] | > 500 nM |
| N#Cc1ccc(-c2cnc3c(cnn3C(Cc3ccccc3)C(=O)NO)c2)cc1 (stereo not drawn) [Compound I-0117, 2-(5-(4-cyanophenyl)-1H-pyrazolo[3,4-b]pyridin-1-yl)-N-hydroxy-3-phenylpropanamide] | > 500 nM |
| O=C(NO)C(Cc1ccccc1)n1ncc2cc(-c3cncnc3)cnc21 (stereo not drawn) [Compound I-0121, N-hydroxy-3-phenyl-2-(5-(pyrimidin-5-yl)-1H-pyrazolo[3,4-b]pyridin-1-yl)propanamide] | 200 to 500 nM |
| O=C(NO)C(Cc1ccccc1)n1ncc2cc(Br)cnc21 (stereo not drawn) [Compound I-0122, 2-(5-bromo-1H-pyrazolo[3,4-b]pyridin-1-yl)-N-hydroxy-3-phenylpropanamide] | 200 to 500 nM |
| O=C(NO)C(Cc1ccccc1)n1cc2cc(Br)cnc2n1 (stereo not drawn) [Compound I-0123, 2-(5-bromo-2H-pyrazolo[3,4-b]pyridin-2-yl)-N-hydroxy-3-phenylpropanamide] | 200 to 500 nM |

Second part, the molecule after the results:

| IC50 | Compound |
| --- | --- |
| 200 to 500 nM | COc1ncc(-c2cc3cnn(C(Cc4ccccc4)C(=O)NO)c3cn2)cn1 (stereo not drawn) [Compound I-0094, N-hydroxy-2-(5-(2-methoxypyrimidin-5-yl)-1H-pyrazolo[3,4-c]pyridin-1-yl)-3-phenylpropanamide] |
| 200 to 500 nM | O=C(NO)C(Cc1ccccc1)n1ncc2cc(-c3cccnc3)ncc21 (stereo not drawn) [Compound I-0095, N-hydroxy-3-phenyl-2-(5-(pyridin-3-yl)-1H-pyrazolo[3,4-c]pyridin-1-yl)propanamide] |
| 200 to 500 nM | Cc1nn(C)c(C)c1-c1ccc2c(cnn2C(Cc2ccccc2)C(=O)NO)c1 (stereo not drawn) [Compound I-0103, N-hydroxy-3-phenyl-2-(5-(1,3,5-trimethyl-1H-pyrazol-4-yl)-1H-indazol-1-yl)propanamide] |
| 50 to 200 nM | O=C(NO)C(Cc1ccccc1)n1ncc2cc(-c3cccnc3)ccc21 (stereo not drawn) [Compound I-0104, N-hydroxy-3-phenyl-2-(5-(pyridin-3-yl)-1H-indazol-1-yl)propanamide] |
| 50 to 200 nM | Cn1cc(-c2ccc3c(cnn3C(Cc3ccccc3)C(=O)NO)c2)cn1 (stereo not drawn) [Compound I-0105, N-hydroxy-2-(5-(1-methyl-1H-pyrazol-4-yl)-1H-indazol-1-yl)-3-phenylpropanamide] |
| 200 to 500 nM | CN(C)C(=O)c1ccc(-c2ccc3c(cnn3C(Cc3ccccc3)C(=O)NO)c2)cc1 (stereo not drawn) [Compound I-0106, 4-(1-(1-(hydroxyamino)-1-oxo-3-phenylpropan-2-yl)-1H-indazol-5-yl)-N,N-dimethylbenzamide] |
| 50 to 200 nM | N/C(=N\O)c1cccc(-c2ccc3c(cnn3C(Cc3ccccc3)C(=O)NO)c2)c1 (stereo not drawn) [Compound I-0107, (Z)-N-hydroxy-2-(5-(3-(N′-hydroxy-carbamimid-oyl)phenyl)-1H-indazol-1-yl)-3-phenylpropanamide] |
| 200 to 500 nM | Cn1cc(-c2cccc3cn(C(Cc4ccccc4)C(=O)NO)nc23)cn1 (stereo not drawn) [Compound I-0109, N-hydroxy-2-(7-(1-methyl-1H-pyrazol-4-yl)-2H-indazol-2-yl)-3-phenylpropanamide] |
| ≤ 50 nM | CN(C)C(=O)c1ccc(-c2cccc3cn(C(Cc4ccccc4)C(=O)NO)nc23)cc1 (stereo not drawn) [Compound I-0110, 4-(2-(1-(hydroxyamino)-1-oxo-3-phenylpropan-2-yl)-2H-indazol-7-yl)-N,N-dimethylbenzamide] |
| 50 to 200 nM | O=C(NO)C(Cc1ccccc1)c1cnc2cc(-c3cncnc3)ccn12 (stereo not drawn) [Compound I-0112, N-hydroxy-3-phenyl-2-(7-(pyrimidin-5-yl)imidazo[1,2-a]pyridin-3-yl)propanamide] |
| 200 to 500 nM | O=C(NO)C(Cc1ccccc1)c1cnc2cc(-c3cccnc3)ccn12 (stereo not drawn) [Compound I-0114, N-hydroxy-3-phenyl-2-(7-(pyridin-3-yl)imidazo[1,2-a]pyridin-3-yl)propanamide] |
| 200 to 500 nM | Cn1nccc1-c1ccn2c(C(Cc3ccccc3)C(=O)NO)cnc2c1 (stereo not drawn) [Compound I-0115, N-hydroxy-2-(7-(1-methyl-1H-pyrazol-5-yl)imidazo[1,2-a]pyridin-3-yl)-3-phenylpropanamide] |
| 200 to 500 nM | NC(=O)c1ccc(-c2cnc3c(cnn3C(Cc3ccccc3)C(=O)NO)c2)cc1 (stereo not drawn) [Compound I-0118, 4-(1-(1-(hydroxyamino)-1-oxo-3-phenylpropan-2-yl)-1H-pyrazolo[3,4-b]pyridin-5-yl)benzamide] |
| 200 to 500 nM | Cn1nccc1-c1cnc2c(cnn2C(Cc2ccccc2)C(=O)NO)c1 (stereo not drawn) [Compound I-0119, N-hydroxy-2-(5-(1-methyl-1H-pyrazol-5-yl)-1H-pyrazolo[3,4-b]pyridin-1-yl)-3-phenylpropanamide] |
| 200 to 500 nM | Cn1cc(-c2cnc3c(cnn3C(Cc3ccccc3)C(=O)NO)c2)cn1 (stereo not drawn) [Compound I-0120, N-hydroxy-2-(5-(1-methyl-1H-pyrazol-4-yl)-1H-pyrazolo[3,4-b]pyridin-1-yl)-3-phenylpropanamide] |
| 50 to 200 nM | O=C(NO)C(Cc1ccccc1)n1nc(I)c2ccnc(Cl)c21 (stereo not drawn) [Compound I-0124, 2-(7-chloro-3-iodo-1H-pyrazolo[3,4-c]pyridin-1-yl)-N-hydroxy-3-phenylpropanamide] |
